# Patent US12576099B2, “Ribose-modified cap analog and use thereof” (Beijing Youcare Kechuang Pharmaceutical Technology Co., Ltd., priority 2024, dated 2026)
# What was measured:
# [1] = target: T1, DCP2 enzyme (Schizosaccharomyces pombe, UniProt O13828); experiment: Decapping enzyme stability test; assay type: biochemical; conditions: for Decapping rate (%) of DCP2 enzyme: 50 U mRNA decapping enzyme, 37° C., 45 minutes
# T1 construct: purchased New England Biolabs
# T1 sequence (O13828 1-243 limits assumed): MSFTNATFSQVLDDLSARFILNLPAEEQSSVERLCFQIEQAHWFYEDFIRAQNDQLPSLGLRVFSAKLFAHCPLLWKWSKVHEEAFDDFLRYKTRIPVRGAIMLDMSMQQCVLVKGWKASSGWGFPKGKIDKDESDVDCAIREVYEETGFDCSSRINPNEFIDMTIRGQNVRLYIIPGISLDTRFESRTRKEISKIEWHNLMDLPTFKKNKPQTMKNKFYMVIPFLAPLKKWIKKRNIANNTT
# T1 sequence (Q9P805 1-127 partner): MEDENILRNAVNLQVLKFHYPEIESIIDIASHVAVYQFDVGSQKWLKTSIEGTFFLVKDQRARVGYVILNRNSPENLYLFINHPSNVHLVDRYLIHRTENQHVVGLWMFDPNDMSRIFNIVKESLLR
# T1 sequence (Q10108 155-180 partner limits assumed): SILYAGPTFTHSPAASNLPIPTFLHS
# Description: […] of RNA purified by polyacrylamide gel electrophoresis (PAGE) was subjected to an enzymatic reaction with 50 U of mRNA decapping enzyme (New England Biolabs) and 1×MDE buffer at 37° C. for 45 minutes. The enzymatic reactants were subjected to PAGE and stained with SYBR Green II (Lonza), followed by observation of the post-electrophoresis gel image on a Typhoon FLA 7000 (GE Healthcare) instrument. The electrophoresis band intensity ratio of RNA capping to RNA decapping was counted using ImageQuant (GE Healthcare) software, and the decapping rate of the decapping enzyme was calculated.
# [2] = Characterization of lipid nanoparticles encapsulating Fluc-mRNA prepared from different cap structures; assay type: physicochemical; conditions: for Particle size: LNP (YK-009/DSPC/cholesterol/DMG-PEG2000) with Fluc-mRNA transcribed using the named cap analog; for PDI: LNP with Fluc-mRNA transcribed using the named cap analog; for EE: encapsulation efficiency of LNP with Fluc-mRNA transcribed using the named cap analog
# Description: Cationic lipid YK-009 (Beijing Youcare Kechuang Pharmaceutical Technology Co., Ltd.), DSPC (AVT (Shanghai) Pharmaceutical Technology Co., Ltd.), cholesterol (AVT (Shanghai) Pharmaceutical Technology Co., Ltd.), and DMG-PEG2000 were dissolved in ethanol at a molar ratio of 49:10:39.5:1.5, and the mRNA was diluted in 50 mM citrate buffer (pH=4). The ethanol lipid solution was mixed with the Fluc-mRNA aqueous solution prepared from different cap structures at a volume ratio of 1:3 using a microfluidic device at a flow rate of 10 mL/min to prepare LNPs at a weight ratio of total lipid to mRNA of approximately 15:1.
# The resulting liposomes were diluted to 10-fold volume with PBS, and then ultrafiltered with a 300 KDa ultrafiltration tube to remove ethanol. The volume was then fixed to a certain volume with PBS. Finally, the LNPs were filtered through a 0.2 μm sterile filter to obtain an LNP preparation encapsulating Fluc-mRNA using YK-009/DSPC/cholesterol/DMG-PEG2000 (at a molar ratio of 49:10:39.5:1.5).
# The particle size and polydispersity index (PDI) were determined by dynamic light scattering using a Malvern laser particle size analyzer. 10 μL of the liposome solution was taken, diluted to 1 mL with RNase-free deionized water, and added to a sample pool. Each sample was measured in triplicate. The measurement conditions were: a scattering angle of 90° and a temperature of 25° C. The encapsulation efficiency of LNPs was determined using the Quant-iT RiboGreen RNA Quantification Kit (Thermo Fisher Scientific, UK) according to the manufacturer's instructions.
# [3] = target: T7 RNA polymerase (Escherichia phage T7, UniProt P00573); experiment: In vitro transcription yield of mRNA using cap analogs; assay type: biochemical; conditions: for Yield per unit template: in vitro transcription, 1 μg DNA template, 37° C., 2 hours
# Chain of T7 RNA polymerase (P00573 whole entry): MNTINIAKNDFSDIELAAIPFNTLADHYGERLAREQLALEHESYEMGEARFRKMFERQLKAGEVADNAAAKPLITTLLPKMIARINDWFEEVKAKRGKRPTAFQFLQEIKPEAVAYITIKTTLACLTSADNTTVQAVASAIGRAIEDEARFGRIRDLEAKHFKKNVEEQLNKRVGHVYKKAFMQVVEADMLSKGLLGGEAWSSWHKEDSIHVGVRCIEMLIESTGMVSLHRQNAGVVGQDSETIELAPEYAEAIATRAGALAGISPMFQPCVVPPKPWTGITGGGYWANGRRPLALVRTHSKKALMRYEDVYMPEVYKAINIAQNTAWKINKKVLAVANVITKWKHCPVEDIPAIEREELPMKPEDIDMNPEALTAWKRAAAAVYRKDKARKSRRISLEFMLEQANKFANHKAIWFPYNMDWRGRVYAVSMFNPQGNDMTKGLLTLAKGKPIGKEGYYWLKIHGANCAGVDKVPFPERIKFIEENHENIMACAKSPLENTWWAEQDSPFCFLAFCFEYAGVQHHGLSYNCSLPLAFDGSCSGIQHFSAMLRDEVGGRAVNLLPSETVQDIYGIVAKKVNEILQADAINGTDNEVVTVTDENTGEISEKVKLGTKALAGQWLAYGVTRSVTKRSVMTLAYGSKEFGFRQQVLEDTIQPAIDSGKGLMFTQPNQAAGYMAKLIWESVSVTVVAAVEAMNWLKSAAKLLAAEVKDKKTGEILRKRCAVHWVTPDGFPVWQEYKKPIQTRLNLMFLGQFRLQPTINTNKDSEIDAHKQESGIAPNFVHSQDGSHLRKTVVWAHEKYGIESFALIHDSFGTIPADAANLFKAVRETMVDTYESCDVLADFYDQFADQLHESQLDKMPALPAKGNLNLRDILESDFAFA
# Description: • (1) Capping synthesis using cap analogs
# The plasmid was first linearized with plasmid linearizing enzyme, and then the linearized plasmid was purified. • (2) In vitro transcription and synthesis of mRNA
# During the experiment, the volume of materials required for the system was first calculated, and then sample addition was conducted. The system was first added with sterile enzyme-free water, followed by the sequential addition of 10× buffer, NTPs, and cap analogs, mixed well, and gently centrifuged. Nuclease inhibitors, inorganic pyrophosphatase, T7RNA polymerase, and linearized DNA templates were then added thereto. The system was mixed well, gently centrifuged, and incubated at 37° C. After 2 hours of incubation, the system was added with 1 U of DNase I and incubated at 37° C. for another 30 minutes. The mRNA precipitate was then washed with 75% ethanol, and after the ethanol was briefly evaporated to dryness, the mRNA was redissolved in sterile enzyme-free water. • (3) The transcription product was purified, and the in vitro transcription yield of mRNA was recorded. • (4) The obtained mRNA was subjected to an annealing reaction with a probe.
# [4] = test system: BALB/C mice; experiment: In vivo imaging of Fluc-mRNA LNP expression in mice
# Description: The LNP preparation containing 5 μg of cap analog-transcribed Fluc-mRNA was intramuscularly injected into female BALB/C mice aged 4 to 6 weeks and weighing 17 to 19 g. At specific time points after administration (6 hours, 12 hours, 24 hours, 48 hours, 96 hours, and 168 hours), the mice were intraperitoneally injected with fluorescence imaging substrate. The mice were then allowed to move freely for 5 minutes, followed by detection of the total radiation intensity of the protein expressed by LNP-carrying mRNA in the mice using an IVIS Spectrum small-animal in vivo imaging system (corresponding to the amount of protein expression).
# In the in vivo imaging experiments in mice, the multiple of the total radiation intensity for each group of mice relative to the m6A group is shown in Table 8 (where the total radiation intensity is represented as the given value×10^8 p/s).
# [5] = 6 h, 5 μg Fluc-mRNA LNP intramuscular, mice
# [6] = 12 h, 5 μg Fluc-mRNA LNP intramuscular, mice
# [7] = 24 h, 5 μg Fluc-mRNA LNP intramuscular, mice
# [8] = 48 h, 5 μg Fluc-mRNA LNP intramuscular, mice
# [9] = 96 h, 5 μg Fluc-mRNA LNP intramuscular, mice
# [10] = 168 h, 5 μg Fluc-mRNA LNP intramuscular, mice
Compound,Decapping rate (%) of DCP2 enzyme [1] [%],Decrease relative to N-7113 (decapping rate) [1] [%],Particle size [2] [nm],PDI [2],EE [2] [%],Yield per unit template [3] [µg],Increase relative to 5227 (in vitro transcription yield) [3] [%],Multiple of total radiation intensity relative to m6A ([4]; 6 h),"Total radiation intensity [4, 5]",Multiple of total radiation intensity relative to m6A ([4]; 12 h),"Total radiation intensity [4, 6]",Multiple of total radiation intensity relative to m6A ([4]; 24 h),"Total radiation intensity [4, 7]",Multiple of total radiation intensity relative to m6A ([4]; 48 h),"Total radiation intensity [4, 8]",Multiple of total radiation intensity relative to m6A ([4]; 96 h),"Total radiation intensity [4, 9]","Total radiation intensity [4, 10]",Total radiation intensity ([4]; at 12 hours),Total radiation intensity ([4]; at 48 hours)
COC[C@@H]1[C@H](OP(=O)(O)OC[C@H]2O[C@@H](n3cnc4c(=O)[nH]c(N)nc43)[C@H](O)[C@@H]2O)[C@@H](COP(=O)(O)OP(=O)(O)OP(=O)(O)OC[C@H]2O[C@@H]([n+]3cn(C)c4c(=O)[nH]c(N)nc43)[C@H](O)[C@@H]2O)O[C@H]1n1cnc2c(N)ncnc21 [YK-CAP-113],15.3,28.5,79.34,0.043,96.1,166.1,23.8,2.6,6.07 ×108 p/s,3.6,7.63 ×108 p/s,3.1,2.02 ×108 p/s,2.5,1.29 ×108 p/s,1.2,0.31 ×108 p/s,0.04 ×108 p/s,–,–
CO[C@@H]1[C@H](OP(=O)(O)OC[C@H]2O[C@@H](n3cnc4c(=O)[nH]c(N)nc43)[C@H](O)[C@@H]2O)[C@@H](COP(=O)(O)OP(=O)(O)OP(=O)(O)OC[C@H]2O[C@@H]([n+]3cn(C)c4c(=O)[nH]c(N)nc43)[C@H](O)[C@]2(C)NC(C)=O)O[C@H]1n1cnc2c(N)ncnc21 [YK-CAP-106],17.3,26.5,68.24,0.048,97.1,155.5,15.9,2.5,5.88 ×108 p/s,3.2,6.85 ×108 p/s,2.7,1.76 ×108 p/s,1.0,0.53 ×108 p/s,2.6,0.11 ×108 p/s,0.03 ×108 p/s,–,–
CO[C@@H]1[C@H](OP(=O)(O)OC[C@H]2O[C@@H](n3cnc4c(=O)[nH]c(N)nc43)[C@H](O)[C@@H]2O)[C@@H](COP(=O)(O)OP(=O)(O)OP(=O)(O)OC[C@H]2O[C@@H]([n+]3cn(C)c4c(=O)[nH]c(N)nc43)[C@H](O)[C@@H]2C(C)F)O[C@H]1n1cnc2c(N)ncnc21 (some centres unmarked) [YK-CAP-109],17.3,26.5,86.35,0.035,97.2,168.1,25.3,2.6,6.04 ×108 p/s,2.8,5.84 ×108 p/s,2.8,1.85 ×108 p/s,1.0,0.54 ×108 p/s,2.7,0.14 ×108 p/s,0.03 ×108 p/s,–,–
CO[C@@H]1[C@H](OP(=O)(O)OC[C@H]2O[C@@H](n3cnc4c(=O)[nH]c(N)nc43)[C@H](O)[C@@H]2O)[C@@H](COP(=O)(O)OP(=O)(O)OP(=O)(O)OC[C@H]2O[C@@H]([n+]3cn(C)c4c(=O)[nH]c(N)nc43)[C@H](O)[C@@H]2C(C)NC(C)=O)O[C@H]1n1cnc2c(N)ncnc21 (some centres unmarked) [YK-CAP-108],16.3,27.5,83.13,0.023,96.4,151.8,13.1,2.7,6.42 ×108 p/s,2.8,6.03 ×108 p/s,2.6,1.70 ×108 p/s,2.0,1.04 ×108 p/s,1.3,0.19 ×108 p/s,0.02 ×108 p/s,–,–
CO[C@@H]1[C@H](OP(=O)(O)OC[C@H]2O[C@@H](n3cnc4c(=O)[nH]c(N)nc43)[C@H](O)[C@@H]2O)[C@@H](COP(=O)(O)OP(=O)(O)OP(=O)(O)OC[C@H]2OC([n+]3cn(C)c4c(=O)[nH]c(N)nc43)[C@H](O)[C@@H](O)[C@@H]2O)O[C@H]1n1cnc2c(N)ncnc21 (some centres unmarked) [YK-CAP-101],32.4,11.4,75.45,0.043,93.4,32.5,−75.8,0.8,1.81 ×108 p/s,0.5,0.96 ×108 p/s,0.5,0.36 ×108 p/s,0.4,0.19 ×108 p/s,1.5,0.04 ×108 p/s,0.02 ×108 p/s,0.96 ×10^8 p/s,0.19 ×10^8 p/s
